We go through eight compounds from US20030212051A1, “Bile acid containing prodrugs with enhanced bioavailabilty” (priority 2003, published 2003).

Data set [1] concerns the target T1, human intestinal bile acid transporter (hIBAT) (Homo sapiens, UniProt Q12908).
T1 construct: expressed in transfected cells; host or cells: COS-7 cells, transient transfection with pCMV5-hIBAT (LipofectAMINE 2000)
T1 sequence (Q12908 1-348): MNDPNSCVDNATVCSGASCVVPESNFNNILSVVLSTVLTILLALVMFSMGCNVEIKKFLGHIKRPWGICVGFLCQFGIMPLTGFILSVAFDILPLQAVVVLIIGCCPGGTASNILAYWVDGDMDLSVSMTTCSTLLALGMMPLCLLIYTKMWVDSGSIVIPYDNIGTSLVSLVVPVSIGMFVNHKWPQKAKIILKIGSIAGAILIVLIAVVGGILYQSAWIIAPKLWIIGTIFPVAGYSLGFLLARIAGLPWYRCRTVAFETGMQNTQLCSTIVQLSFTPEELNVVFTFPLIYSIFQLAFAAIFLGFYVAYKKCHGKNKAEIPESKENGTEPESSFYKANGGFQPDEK
The data set is described as follows: Competitive inhibition of 3H-taurocholate uptake in COS-hIBAT cells. The data set is classed as cell-based. The conditions noted are these: for Ki: COS-7 cells transfected with hIBAT, HBSS with sodium, value (±SEM); for inhibition of 3H-taurocholate uptake / interaction with hIBAT (in words): COS-hIBAT cells, 0.25 μM 3H-taurocholate, valacyclovir 10 to 600 μM, atenolol 10 to 200 μM, glycine and taurine 50 to 200 μM, bile acids 1 to 100 μM. The protocol:
Cell dilutions are streaked on nutrient agar plates containing 50 μg/ml ampicillin, and incubated at 37° C. overnight. Isolated colonies are selected aseptically, and are used to inoculate a 200 ml nutrient broth culture containing 50 μg/ml ampicillin. […] After an isopropanol precipitation and ethanol wash, the DNA is reconstituted in 600 μl of sterile deionized water. […] Cells are transfected at 24 hours post seeding. For each well transfected, 0.8 μg hIBAT cDNA is combined with LipofectAMINE 2000 reagent and incubated at room temperature for 20 minutes to allow complexes to form. A volume of 100 μl of hIBAT-lipid complex is added to each well of cells.
Uptake studies are performed on COS-hIBAT cells at 24 hours post-transfection. […] Because bile acid transport is sodium dependent, this MHBSS approach allows for the simple modification of the uptake buffer to exclude all sources of sodium, and thus enables for a control uptake assay under sodium-free conditions.
Incubation conditions and analysis are performed as described for the Km and Vmax studies. The following equation (Formula 2) is used to estimate the Ki for a series of naturally occurring bile acids: [formula]
Inhibition studies are performed in triplicate.

The test system of the next data set is Caco-2 monolayers. As to conditions: across Caco-2 monolayers; example value for reference marker; cited from earlier work.
In data set [2] the target is T2, human intestinal peptide transporter (PepT1) (Homo sapiens, UniProt P46059).
T2 sequence (P46059 1-708): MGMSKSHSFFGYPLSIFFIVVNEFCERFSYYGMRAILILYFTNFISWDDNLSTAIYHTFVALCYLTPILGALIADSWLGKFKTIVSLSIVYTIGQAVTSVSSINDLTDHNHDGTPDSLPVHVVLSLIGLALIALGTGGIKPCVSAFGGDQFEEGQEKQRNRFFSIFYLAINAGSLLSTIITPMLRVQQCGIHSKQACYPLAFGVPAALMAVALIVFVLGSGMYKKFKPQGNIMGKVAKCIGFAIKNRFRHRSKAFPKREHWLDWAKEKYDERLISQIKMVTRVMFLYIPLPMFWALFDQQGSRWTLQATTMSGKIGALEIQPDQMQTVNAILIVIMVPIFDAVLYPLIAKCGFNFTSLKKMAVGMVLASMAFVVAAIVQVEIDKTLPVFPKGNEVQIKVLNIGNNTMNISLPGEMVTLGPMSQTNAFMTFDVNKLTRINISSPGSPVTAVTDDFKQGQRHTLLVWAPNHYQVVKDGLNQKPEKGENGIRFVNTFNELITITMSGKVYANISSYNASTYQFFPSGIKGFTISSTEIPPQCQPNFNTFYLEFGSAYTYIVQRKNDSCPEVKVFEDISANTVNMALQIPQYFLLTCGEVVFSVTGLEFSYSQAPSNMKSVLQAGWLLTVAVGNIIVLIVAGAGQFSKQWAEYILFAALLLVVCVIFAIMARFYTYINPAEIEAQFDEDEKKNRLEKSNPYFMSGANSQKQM
The conditions noted are these: stable lines of CHO/PepT1; cited from earlier work.

The conditions of data set [3]: cited from earlier work.
The mark [4] stands for this setting: read-out: Ki, inhibition of 3H-taurocholate uptake.

Where a name gives a salt, the structure may show the parent alone. Read-outs that look alike come from different tables or passages of the source.

For `CC(C)[C@H](NC(=O)CC[C@@H](C)[C@H]1CC[C@H]2[C@@H]3[C@H](O)C[C@@H]4C[C@H](O)CC[C@]4(C)[C@H]3CC[C@]12C)C(=O)OCCOCn1cnc2c(=O)[nH]c(N)nc21` [acyclovir valylchenodeoxycholate], the Ki (usually the equilibrium dissociation constant of an inhibitor or competing ligand from its target) in data set [1] (setting [4]) turned out to be 35.6 µM.
Still for that read-out and setting: with `CC(C)C(NC(=O)CCC(C)C1CCC2C3CCC4CC(O)CCC4(C)C3CC(O)C12C)C(=O)OCCOCn1cnc2c(=O)[nH]c(N)nc21` (centres unmarked) [acyclovir valyldeoxycholate] the figure was 401 µM.
In data set [1], `C[C@H](CCC(=O)O)[C@H]1CC[C@H]2[C@@H]3[C@H](O)C[C@@H]4C[C@H](O)CC[C@]4(C)[C@H]3CC[C@]12C` [chenodeoxycholate] displayed a Ki of 5.4 µM.
As for `NCC(=O)O` [glycine], in data set [1], the “inhibition of 3H-taurocholate uptake / interaction with hIBAT (in words)” value is recorded as “not reduced”.
Take `C[C@H](CCC(=O)O)[C@H]1CC[C@H]2[C@@H]3CC[C@@H]4C[C@H](O)CC[C@]4(C)[C@H]3CC[C@]12C` [lithocholate]: the “inhibition of 3H-taurocholate uptake / interaction with hIBAT (in words)” value in data set [1] was “never reaches 50% maximal velocity”.
For `COCCc1ccc(OCC(O)CNC(C)C)cc1` (centres unmarked) [metoprolol tartrate], the permeability in the data set with Caco-2 monolayers was 400 nm/s.
As to `NCCS(=O)(=O)O` [taurine], in data set [1], the “inhibition of 3H-taurocholate uptake / interaction with hIBAT (in words)” value is on record as “not reduced”.
With `CC(C)[C@H](N)C(=O)OCCOCn1cnc2c(=O)[nH]c(N)nc21` [valacyclovir], the figures for the “inhibition of 3H-taurocholate uptake / interaction with hIBAT (in words)” value in data set [1] and in data set [1] (listed as Valacyclovir) were “no inhibition” and “do not inhibit”, respectively. Moreover, the inhibitory constant (Ki) in data set [2] was 1100 µM. Besides, the “bioavailability after oral administration” value in data set [3] is 54%.
